Assay results from patent publication US20240279221A1, “HETEROCYCLIC COMPOUNDS AND METHODS OF USE” (Schrödinger, Inc., priority 2021, published 2024).

How the values were obtained:
[1] = biological target: SOS1:KRAS (G12C) interaction (Homo sapiens (Human), UniProt Q07889); assay: SOS1-KRas(G12C) FRET Assay; type: binding; settings: 0.5 nM His10-SOS1 (res. 564-1049), 2.5 nM GST-KRAS (res. 1-169, G12C); read-out: SOS-KRas(G12C) FRET IC50
In short: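 TR-FRET measured binding of His10-SOS1 (res. 564-1049, 0.5 nM) to GST-KRAS G12C (res. 1-169, 2.5 nM), with anti-GST-Eu(K) and anti-6His-XL665 labels, in PBS with BSA, MgCl2, KF and DTT; 0.5% DMSO. Compound and SOS1 were pre-incubated 15 min at 25° C, KRAS was added, and the plate was read at 665/615 nm after 2 h at RT. IC50 and Hill slope came from non-linear regression.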

human SOS1 = human SOS1 (Homo sapiens (Human), UniProt Q07889); assay: Surface Plasmon Resonance (SPR) SOS1 Binding Assay; settings: biotinylated SOS1 (res. 564-1049), 25° C., kinetic or steady state fit, read-out: KD for hSOS1
Chain of human SOS1 (Q07889 564-1049): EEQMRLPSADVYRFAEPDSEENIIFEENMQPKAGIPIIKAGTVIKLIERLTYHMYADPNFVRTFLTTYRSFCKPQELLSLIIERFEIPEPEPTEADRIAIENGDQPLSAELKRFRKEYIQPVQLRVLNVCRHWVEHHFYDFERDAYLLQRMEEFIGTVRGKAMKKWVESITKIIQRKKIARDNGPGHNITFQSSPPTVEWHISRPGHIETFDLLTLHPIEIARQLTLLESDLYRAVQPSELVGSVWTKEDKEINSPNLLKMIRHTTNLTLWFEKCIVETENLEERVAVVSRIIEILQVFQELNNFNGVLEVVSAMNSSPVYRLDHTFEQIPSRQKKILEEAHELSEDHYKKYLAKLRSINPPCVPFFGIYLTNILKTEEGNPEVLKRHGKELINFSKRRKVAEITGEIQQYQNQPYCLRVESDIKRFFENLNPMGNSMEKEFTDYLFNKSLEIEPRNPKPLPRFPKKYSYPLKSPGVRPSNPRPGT
Description: Binding to SOS1 was measured using a SPR assay with purified recombinant human SOS1 substrate (res. 564-1049 with N-terminal Avi tag; purified and biotinylated based on Hillig, et al., Proc Natl Acad Sci USA (2019); 116(7):2551-2560). SPR measurements were performed on a Biacore 8K SPR instrument (GE Healthcare, Sweden). Assays were performed at 25° C. using Series S SA sensor chips pre-coated with streptavidin (GE Healthcare, Cat. BR100531). Biotinylated SOS1 diluted in sample buffer (20 mM Tris HCl, 150 mM NaCl, 1 mM DTT, 0.05% TWEEN 20, 1 mM MgCl2, pH 8.0) was captured to one flow cell of the chip to about 3,000 resonance units (RU) using sample buffer supplemented with 5% DMSO as a running buffer. Serial dilutions of the assayed compounds in the running buffer at 100, 50 or 0.5 μM were injected for 60 s at a flow rate of 30 μL/min and association phases were recorded. Dissociation of the samples was monitored for 600 s. Data processing was performed using Biacore Insight Software (Biacore, GE Healthcare). Sensorgrams recorded on a SA flow cell without captured protein were subtracted from sensorgrams recorded on the SOS1 surface. Blank injections of running buffer were used for double referencing and solvent correction was applied to all sample sensorgrams to correct for buffer mismatches. KDs were estimated using a kinetic or steady state, where applicable, fitting model describing a reversible equilibrium with 1:1 binding between SOS1 and the compound.

Chain of SOS1:KRAS (G12C) interaction (Q07889 564-1049, stated change not applied): as the sequence (Q07889 564-1049) above

| IC50 [1] | Kd (human SOS1) | SMILES |
| --- | --- | --- |
| 161 nM | 44 nM | COc1c(=O)n(C2CC2)cc2c(N[C@H](C)c3cccc(C(F)(F)F)c3C)nn(C)c(=O)c12 [Example 6, (R)-6-cyclopropyl-8-methoxy-2-methyl-4-((1-(2-methyl-3-(trifluoromethyl)phenyl)ethyl)amino)-2,6-dihydropyrido[3,4-d]pyridazine-1,7-dione] |
| 1050 nM | 259 nM | Cc1c([C@@H](C)Nc2nn(C)c(=O)c3c(C)c(=O)n(C4CC4)cc23)cccc1C(F)(F)F [Example 7, (R)-6-cyclopropyl-2,8-dimethyl-4-((1-(2-methyl-3-(trifluoromethyl)phenyl)ethyl)amino)-2,6-dihydropyrido[3,4-d]pyridazine-1,7-dione] |
| 286 nM | 64 nM | CC(=O)N1CCC(n2cc3c(N[C@H](C)c4cccc(C(F)(F)F)c4C)nn(C)c(=O)c3cc2=O)CC1 [Example 9, (R)-6-(1-acetylpiperidin-4-yl)-2-methyl-4-((1-(2-methyl-3-(trifluoromethyl)phenyl)ethyl)amino)-2,6-dihydropyrido[3,4-d]pyridazine-1,7-dione] |
| 2250 nM | 136 nM | Cc1c([C@@H](C)Nc2nn(C)c(=O)c3c(C#N)c(=O)n(C4CC4)cc23)cccc1C(F)(F)F [Example 10, (R)-6-cyclopropyl-2-methyl-4-((1-(2-methyl-3-(trifluoromethyl)phenyl)ethyl)amino)-1,7-dioxo-1,2,6,7-tetrahydropyrido[3,4-d]pyridazine-8-carbonitrile] |
| 592 nM | 95 nM | Cc1c([C@@H](C)Nc2nn(C)c(=O)c3c(Cl)c(=O)n(C4CC4)cc23)cccc1C(F)(F)F [Example 11, (R)-8-chloro-6-cyclopropyl-2-methyl-4-((1-(2-methyl-3-(trifluoromethyl)phenyl)ethyl)amino)-2,6-dihydropyrido[3,4-d]pyridazine-1,7-dione] |
| 1330 nM | 290 nM | Cc1c([C@@H](C)Nc2nn(C)c(=O)c3c(N)c(=O)n(C4CC4)cc23)cccc1C(F)(F)F [Example 12, (R)-8-amino-6-cyclopropyl-2-methyl-4-((1-(2-methyl-3-(trifluoromethyl)phenyl)ethyl)amino)-2,6-dihydropyrido[3,4-d]pyridazine-1,7-dione] |
| 99.6 nM | 25 nM | Cc1c([C@@H](C)Nc2nn(C)c(=O)c3cc(=O)n([C@H]4C[C@H](O)C4)cc23)cccc1C(F)(F)F [Example 13, 6-((1r,3r)-3-hydroxycyclobutyl)-2-methyl-4-(((R)-1-(2-methyl-3-(trifluoromethyl)phenyl)ethyl)amino)-2,6-dihydropyrido[3,4-d]pyridazine-1,7-dione] |
| 537 nM | 87 nM | Cc1c([C@@H](C)Nc2nn(C)c(=O)c3cc(=O)n([C@H]4C[C@@H](O)C4)cc23)cccc1C(F)(F)F [Example 14, 6-((1s,3s)-3-hydroxycyclobutyl)-2-methyl-4-(((R)-1-(2-methyl-3-(trifluoromethyl)phenyl)ethyl)amino)-2,6-dihydropyrido[3,4-d]pyridazine-1,7-dione] |
| 198 nM | 40 nM | Cc1c([C@@H](C)Nc2nn(C)c(=O)c3cc(=O)n(C4(C)CC4)cc23)cccc1C(F)(F)F [Example 15, (R)-2-methyl-4-((1-(2-methyl-3-(trifluoromethyl)phenyl)ethyl)amino)-6-(1-methylcyclopropyl)-2,6-dihydropyrido[3,4-d]pyridazine-1,7-dione] |
| 235 nM | 84 nM | Cc1c([C@@H](C)Nc2nn(C)c(=O)c3cc(=O)n(C45CC(C4)C5)cc23)cccc1C(F)(F)F [Example 16, (R)-6-(bicyclo[1.1.1]pentan-1-yl)-2-methyl-4-((1-(2-methyl-3-(trifluoromethyl)phenyl)ethyl)amino)-2,6-dihydropyrido[3,4-d]pyridazine-1,7-dione] |
| 248 nM | 31 nM | C[C@@H](Nc1nn(C)c(=O)c2cc(=O)n(C3CC3)cc12)c1cccc(C(F)F)c1F [Example 17, (R)-6-cyclopropyl-4-((1-(3-(difluoromethyl)-2-fluorophenyl)ethyl)amino)-2-methyl-2,6-dihydropyrido[3,4-d]pyridazine-1,7-dione] |
| 53.8 nM | 16 nM | C[C@@H](Nc1nn(C)c(=O)c2cc(=O)n(C3CCOCC3)cc12)c1cccc(C(F)F)c1F [Example 18, (R)-4-((1-(3-(difluoromethyl)-2-fluorophenyl)ethyl)amino)-2-methyl-6-(tetrahydro-2H-pyran-4-yl)-2,6-dihydropyrido[3,4-d]pyridazine-1,7-dione] |
| 806 nM | 161 nM | CCOc1c(=O)n(C2CC2)cc2c(N[C@H](C)c3cccc(C(F)(F)F)c3C)nn(C)c(=O)c12 [Example 19, (R)-6-cyclopropyl-8-ethoxy-2-methyl-4-((1-(2-methyl-3-(trifluoromethyl)phenyl)ethyl)amino)-2,6-dihydropyrido[3,4-d]pyridazine-1,7-dione] |
| 284 nM | 63 nM | Cc1c([C@@H](C)Nc2nn(C)c(=O)c3c(N4CC[C@@H](N)C4)c(=O)n(C4CC4)cc23)cccc1C(F)(F)F [Example 20, 8-((R)-3-aminopyrrolidin-1-yl)-6-cyclopropyl-2-methyl-4-(((R)-1-(2-methyl-3-(trifluoromethyl)phenyl)ethyl)amino)-2,6-dihydropyrido[3,4-d]pyridazine-1,7-dione] |
| 300 nM | 70 nM | Cc1c([C@@H](C)Nc2nn(C)c(=O)c3c(N4CC[C@H](N)C4)c(=O)n(C4CC4)cc23)cccc1C(F)(F)F [Example 21, 8-((S)-3-aminopyrrolidin-1-yl)-6-cyclopropyl-2-methyl-4-(((R)-1-(2-methyl-3-(trifluoromethyl)phenyl)ethyl)amino)-2,6-dihydropyrido[3,4-d]pyridazine-1,7-dione] |
| 350 nM | 74 nM | Cc1c([C@@H](C)Nc2nn(C)c(=O)c3cc(=O)n(C4CCNCC4)cc23)cccc1C(F)(F)F [Example 22, (R)-2-methyl-4-((1-(2-methyl-3-(trifluoromethyl)phenyl)ethyl)amino)-6-(piperidin-4-yl)-2,6-dihydropyrido[3,4-d]pyridazine-1,7-dione] |
| 239 nM | 34 nM | Cc1c([C@@H](C)Nc2nn(CCN)c(=O)c3cc(=O)n(C4CC4)cc23)cccc1C(F)(F)F [Example 24, (R)-2-(2-aminoethyl)-6-cyclopropyl-4-((1-(2-methyl-3-(trifluoromethyl)phenyl)ethyl)amino)-2,6-dihydropyrido[3,4-d]pyridazine-1,7-dione] |
| 61.9 nM | 42 nM | Cc1c([C@@H](C)Nc2nn(C)c(=O)c3cc(=O)n([C@H]4C[C@H](n5ccnc5)C4)cc23)cccc1C(F)(F)F [Example 29, 6-((1r,3R)-3-(1H-imidazol-1-yl)cyclobutyl)-2-methyl-4-(((R)-1-(2-methyl-3-(trifluoromethyl)phenyl)ethyl)amino)-2,6-dihydropyrido[3,4-d]pyridazine-1,7-dione] |
| 78.4 nM | 17 nM | Cc1c([C@@H](C)Nc2nn(C)c(=O)c3c([C@H]4CCCN4)c(=O)n(C4CC4)cc23)cccc1C(F)(F)F [Example 35, 6-cyclopropyl-2-methyl-4-(((R)-1-(2-methyl-3-(trifluoromethyl)phenyl)ethyl)amino)-8-((R)-pyrrolidin-2-yl)-2,6-dihydropyrido[3,4-d]pyridazine-1,7-dione] |
| 33.3 nM | 16 nM | C[C@@H](Nc1nn(C)c(=O)c2cc(=O)n(C3CCOCC3)cc12)c1cccc(C(C)(F)F)c1F [Example 36, (R)-4-((1-(3-(1,1-difluoroethyl)-2-fluorophenyl)ethyl)amino)-2-methyl-6-(tetrahydro-2H-pyran-4-yl)-2,6-dihydropyrido[3,4-d]pyridazine-1,7-dione] |
| 21.1 nM | 9 nM | C[C@@H](Nc1nn(C)c(=O)c2cc(=O)n(C3CCOCC3)cc12)c1cccc(C(F)(F)C(C)(C)O)c1F [Example 40, (R)-4-((1-(3-(1,1-difluoro-2-hydroxy-2-methylpropyl)-2-fluorophenyl)ethyl)amino)-2-methyl-6-(tetrahydro-2H-pyran-4-yl)-2,6-dihydropyrido[3,4-d]pyridazine-1,7-dione] |
| 27.9 nM | 14 nM | COc1c(=O)n(C2CCOCC2)cc2c(N[C@H](C)c3cccc(C(F)(F)C(C)(C)O)c3F)nn(C)c(=O)c12 [Example 41, (R)-4-((1-(3-(1,1-difluoro-2-hydroxy-2-methylpropyl)-2-fluorophenyl)ethyl)amino)-8-methoxy-2-methyl-6-(tetrahydro-2H-pyran-4-yl)-2,6-dihydropyrido[3,4-d]pyridazine-1,7-dione] |
